Data reported in patent US20090209491A1, “Lactams as conformationally constrained peptidomimetic inhibitors” (Trustees of Tufts College, priority 2004, published 2009).

The molecules below were run against DPIV (Homo sapiens, UniProt P27487) (assay: DPIV Inhibition Assay). Conditions: pH 8; substrate L-alanyl-L-proline-para-nitroanilide; inhibitor stood in pH 8 buffer overnight; absorbance 410 nm.
Format: biochemical
Protocol: The inhibitor solution was prepared by dissolving 3-5 mg of inhibitor in pH 2 solution (0.01 N HCl), such that the concentration of the solution was equal to 1 mg/10 μL. A 10 μL sample of this solution was then added to 990 μL of pH 8 buffer (0.1 M HEPES, 0.14 M NaCl), and the solution was allowed to stand at room temperature overnight.
The enzyme solution was prepared by diluting 20 μL of DPIV (concentration 2.5 μM) into 40 mL of pH 8 buffer.
The substrate solution was prepared by dissolving 2.0 mg of L-alanyl-L-proline-para-nitroanilide into 20 mL of pH 8 buffer.
250 μL of enzyme solution was added to well #B1 to #H1, #A2 to #H2, and #A3 to #H3 of a 96 well plate, while well #Al received 250 μL of pH 8 buffer instead of enzyme solution. 90 μL of pH 8 buffer was then added to column 5 (from well #A5 to #H5).
A 1:10 dilution was then performed by adding inhibitor solution to #A5 and the solution was mixed well before transferring 10 μL of this solution from #A5 to #B5. The solution in #B5 was then mixed well before transferring 10 μL of this solution from #B5 to #C5. The solution in #C5 was then mixed well before transferring 10 μL of this solution from #C5 to #D5. The solution in #D5 was then mixed well before transferring 10 μL of this solution from #D5 to #E5. The solution in #E5 was then mixed well before transferring 10 μL of this solution from #E5 to #F5. The solution in #F5 was then mixed well before transferring 10 μL of this solution from #F5 to #G5. The solution in #G5 was then mixed well before transferring 10 μL of this solution from #G5 to #H5.
A 30 μL aliquot was then transferred from #H5 to #H3 for row H, and the contents were mixed well. The analogous procedure was repeated for rows G, F, E, D, C, B, and A sequentially. The plate was then shaken on a plate shaker for 5 minutes before allowing the plate to incubate at room temperature for an additional 5 minutes.
Once the plate had been allowed to incubate, 30 μL of substrate was added to each well except well #A1. The plate was then placed on a plate shaker for 5 minutes before allowing the plate to incubate at room temperature for 25 minutes. The absorbance was then immediately read at a wavelength of 410 nm.

DPIV, sequence (P27487 whole entry): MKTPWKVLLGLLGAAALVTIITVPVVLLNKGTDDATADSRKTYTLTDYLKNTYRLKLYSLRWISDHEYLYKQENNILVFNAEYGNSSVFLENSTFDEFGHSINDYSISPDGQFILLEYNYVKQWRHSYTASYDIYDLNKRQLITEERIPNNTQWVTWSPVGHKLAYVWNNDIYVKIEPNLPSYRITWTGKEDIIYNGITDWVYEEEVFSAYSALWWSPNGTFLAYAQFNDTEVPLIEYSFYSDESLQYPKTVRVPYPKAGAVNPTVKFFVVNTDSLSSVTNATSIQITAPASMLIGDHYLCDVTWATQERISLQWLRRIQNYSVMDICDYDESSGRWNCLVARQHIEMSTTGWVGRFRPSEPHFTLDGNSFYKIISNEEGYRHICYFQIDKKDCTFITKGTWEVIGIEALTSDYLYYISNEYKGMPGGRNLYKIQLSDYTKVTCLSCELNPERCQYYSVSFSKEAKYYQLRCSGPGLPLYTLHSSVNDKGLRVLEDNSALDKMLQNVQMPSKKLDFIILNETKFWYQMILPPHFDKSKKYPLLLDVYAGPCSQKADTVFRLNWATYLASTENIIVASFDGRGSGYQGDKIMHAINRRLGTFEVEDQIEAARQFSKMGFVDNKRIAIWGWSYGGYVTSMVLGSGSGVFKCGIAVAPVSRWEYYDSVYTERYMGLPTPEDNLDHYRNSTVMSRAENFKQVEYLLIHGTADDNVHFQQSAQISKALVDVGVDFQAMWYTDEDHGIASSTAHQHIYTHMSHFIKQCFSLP

Point of comparison: `C[C@@H](B(O)O)N1CC[C@](N)(CC(=O)O)C1=O` [K], IC50 36 nM. Against it:
- C[C@@H](B(O)O)N1CCC(N)C1=O (stereo partly drawn) [B] — within 1.5-fold, 40 nM
- CC[C@@H](B(O)O)N1CC[C@](N)(Cc2ccccc2)C1=O [N] — 12-fold lower, 3 nM
- C[C@@H](B(O)O)N1CC[C@@](C)(N)C1=O [G] — 5.4-fold lower, 6.7 nM
- CC(B(O)O)N1CCC(C)(N)C1=O (stereo not drawn) [E] — 1.6-fold lower, 23 nM
- C[C@H](C#N)N1CCC(N)C1=O (stereo partly drawn) [A] — 310-fold higher, 11000 nM
- C[C@@H](B(O)O)N1CC[C@](N)(Cc2ccccc2)C1=O [M] — 14-fold lower, 2.6 nM
- C[C@@H](B(O)O)N1CC[C@]2(CCCN2)C1=O [Q] — 3.6-fold lower, 9.9 nM
- CC(B(O)O)N1CCC(N)C1=O (stereo not drawn) [D] — within 1.5-fold, 34 nM
- C[C@H](B(O)O)N1CCC(N)C1=O (stereo partly drawn) [C] — 9.4-fold higher, 340 nM
- CC[C@H](B(O)O)N1CC[C@](N)(CC)C1=O [Compound I] — within 1.5-fold, 25 nM
- C[C@@H](B(O)O)N1CC[C@](C)(N)C1=O [F] — 1900-fold higher, 69000 nM
- CCCC[C@@]1(N)CCN([C@@H](C)B(O)O)C1=O [J] — 19-fold lower, 1.9 nM
- CN[C@]1(Cc2ccccc2)CCN([C@@H](C)B(O)O)C1=O [O] — 18-fold higher, 630 nM
- C[C@@H](B(O)O)N1CC[C@](N)(Cc2cccc3ccccc23)C1=O [P] — 17-fold lower, 2.1 nM
